Measurements taken from patent publication US20250320206A1, “STAT6 DEGRADERS” (Gilead Sciences, Inc., priority 2024, published 2025).
pEC50: −log10 of the molar value.

What was measured:
STAT6 = target: T1, STAT6 (Homo sapiens, UniProt P42226); test: Stat6 Degrader Assay (HiBiT based, HeLa LgBiT clone 4.14); type: cell-based; conditions: HeLa LgBiT clone 4.14 HiBiT-STAT6, 4-24 h incubation; values given for compounds with >80% Emax; geometric mean; read-out: STAT6 degradation DC50
T1 construct: These cells express endogenous STAT6; host or cells: HeLa LgBiT clone 4.14
T1 sequence (P42226 1-847): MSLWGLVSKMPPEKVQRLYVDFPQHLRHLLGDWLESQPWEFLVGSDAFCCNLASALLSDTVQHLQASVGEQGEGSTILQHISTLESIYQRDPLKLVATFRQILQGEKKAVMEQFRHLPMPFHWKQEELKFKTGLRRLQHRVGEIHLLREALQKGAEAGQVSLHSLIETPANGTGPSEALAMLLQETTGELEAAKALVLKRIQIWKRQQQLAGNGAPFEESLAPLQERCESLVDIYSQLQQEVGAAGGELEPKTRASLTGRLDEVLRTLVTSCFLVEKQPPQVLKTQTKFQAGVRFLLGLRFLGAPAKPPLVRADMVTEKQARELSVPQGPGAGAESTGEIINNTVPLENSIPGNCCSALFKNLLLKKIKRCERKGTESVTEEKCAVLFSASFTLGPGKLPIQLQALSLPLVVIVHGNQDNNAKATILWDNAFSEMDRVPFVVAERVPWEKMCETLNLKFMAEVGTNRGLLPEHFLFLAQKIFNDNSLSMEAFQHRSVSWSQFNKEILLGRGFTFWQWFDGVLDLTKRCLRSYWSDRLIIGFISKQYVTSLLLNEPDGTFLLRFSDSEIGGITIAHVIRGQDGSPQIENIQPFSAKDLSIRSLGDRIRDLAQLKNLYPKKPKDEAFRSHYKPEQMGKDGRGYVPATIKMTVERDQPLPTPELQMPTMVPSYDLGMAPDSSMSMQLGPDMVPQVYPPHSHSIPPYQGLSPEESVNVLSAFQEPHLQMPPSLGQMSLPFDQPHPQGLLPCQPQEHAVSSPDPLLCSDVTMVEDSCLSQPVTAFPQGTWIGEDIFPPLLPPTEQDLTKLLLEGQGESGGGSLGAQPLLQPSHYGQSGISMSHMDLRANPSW
How it was run: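 HeLa LgBiT clone 4.14 cells with CRISPR HiBiT-tagged endogenous STAT6, 5000 cells/well, compound dosed then incubated 4-24 h at 37° C, 5% CO2. Nano-Glo substrate added, 0.5 h, luminescence read as non-degraded STAT6. Terfenadine 50 μM (cell kill) defines 100% degradation.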

[1] = system: Eotaxin-3 release in human whole blood stimulated with IL-4; test: Human Whole Blood Eotaxin-3 Assay (IL-4 stimulated eotaxin-3 release); type: cell-based; conditions: IL-4 stimulation, 48 h, values given for compounds with >80% Emax, geometric mean
How it was run: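 Lithium-heparin human whole blood preincubated 2 h at 37° C with 4-fold serially diluted compounds (0.5% DMSO), then stimulated with recombinant human IL-4 ([…]) for 48 h. Eotaxin-3 (CCL26) in supernatant quantified by MSD immunoassay.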

DC50 (STAT6)	pEC50 [1]	Compound
2.9 nM	8.47	CNc1cc(=O)n(-c2ccnc3c2cc(CN2CCC(c4c(F)cc(C(=O)N5CCC(CN6CCN(Cc7ccc8c(c7)n(C)c(=O)n8C7CCC(=O)NC7=O)CC6)CC5)cc4F)CC2)n3C)cc1F (centres unmarked) [Example 3u26, 3-(5-((4-((1-(3,5-difluoro-4-(1-((4-(5-fluoro-4-(methylamino)-2-oxopyridin-1 (2H)-yl)-1-methyl-1H-pyrrolo[2,3-b]pyridin-2-yl)methyl)piperidin-4-yl)benzoyl)piperidin-4-yl)methyl)piperazin-1-yl)methyl)-3-methyl-2-oxo-2,3-dihydro-1H-benzo[d]imidazol-1-yl)piperidine-2,6-dione]
1.7 nM	9.05	CNc1ccn(-c2ccnc3c2cc(CN2CCC(c4c(F)cc(C(=O)N5CCC(CN6CCN(Cc7ccc8c(c7)n(C)c(=O)n8C7CCC(=O)NC7=O)CC6)CC5)cc4F)CC2)n3C)c(=O)c1 (centres unmarked) [Example 3u29, 3-(5-((4-((1-(3,5-difluoro-4-(1-((1-methyl-4-(4-(methylamino)-2-oxopyridin-1 (2H)-yl)-1H-pyrrolo[2,3-b]pyridin-2-yl)methyl)piperidin-4-yl)benzoyl)piperidin-4-yl)methyl)piperazin-1-yl)methyl)-3-methyl-2-oxo-2,3-dihydro-1H-benzo[d]imidazol-1-yl)piperidine-2,6-dione]
0.2 nM	9.52	CNc1ccn(-c2ccnc3c2cc([C@H](C)N2CC=C(c4c(C)cc(C(=O)N5CCC(CN6CCN(Cc7ccc8c(c7)n(C)c(=O)n8C7CCC(=O)NC7=O)C[C@@H]6C)CC5)cc4F)CC2)n3C)c(=O)c1 (stereo partly drawn) [Example 3u32, 3-(5-(((S)-4-((1-(3-fluoro-5-methyl-4-(1-((S)-1-(1-methyl-4-(4-(methylamino)-2-oxopyridin-1 (2H)-yl)-1H-pyrrolo[2,3-b]pyridin-2-yl)ethyl)-1,2,3,6-tetrahydropyridin-4-yl)benzoyl)-piperidin-4-yl)methyl)-3-methylpiperazin-1-yl)methyl)-3-methyl-2-oxo-2,3-dihydro-1H-benzo[d]-imidazol-1-yl)piperidine-2,6-dione]
9.6 nM	8.26	CNc1ccn(-c2ccnc3c2cc([C@H](C)N2CC=C(c4c(C)cc(C(=O)N(C)C5CCN(C6CCN(Cc7ccc8c(c7)n(C)c(=O)n8C7CCC(=O)NC7=O)CC6)CC5)cc4F)CC2)n3C)c(=O)c1 (stereo partly drawn) [Example 3u35, N-(1′-((1-(2,6-dioxopiperidin-3-yl)-3-methyl-2-oxo-2,3-dihydro-1H-benzo[d]imidazol-5-yl)methyl)-[1,4′-bipiperidin]-4-yl)-3-fluoro-N,5-dimethyl-4-(1-((S)-1-(1-methyl-4-(4-(methylamino)-2-oxopyridin-1 (2H)-yl)-1H-pyrrolo[2,3-b]pyridin-2-yl)ethyl)-1,2,3,6-tetrahydropyridin-4-yl)benzamide]
1.4 nM	8.48	CNc1cc(=O)n(-c2ccnc3c2cc([C@H](C)N2CCC(c4ccc(C(=O)N5CCC(CN6CCN(Cc7ccc8c(c7)C7(CC7)C(=O)N8C7CCC(=O)NC7=O)C[C@@H]6C)CC5)cc4)CC2)n3C)cc1F (stereo partly drawn) [Example 3u36, 3-(5′-(((S)-4-((1-(4-(1-((S)-1-(4-(5-fluoro-4-(methylamino)-2-oxopyridin-1 (2H)-yl)-1-methyl-1H-pyrrolo[2,3-b]pyridin-2-yl)ethyl)piperidin-4-yl)benzoyl)piperidin-4-yl)methyl)-3-methylpiperazin-1-yl)methyl)-2′-oxospiro[cyclopropane-1,3′-indolin]-1′-yl)piperidine-2,6-dione]
4.3 nM	8.64	Cc1cc(C(=O)N2CCC(CN3CCN(Cc4ccc5c(c4)n(C)c(=O)n5C4CCC(=O)NC4=O)C[C@@H]3C)CC2)cc(F)c1C1CCN(Cc2cc3c(-n4ccc5c(c4=O)CCN5)ccnc3n2C)CC1 (stereo partly drawn) [Example 3u39, 3-(5-(((S)-4-((1-(3-fluoro-5-methyl-4-(1-((1-methyl-4-(4-oxo-1,2,3,4-tetrahydro-5H-pyrrolo[3,2-c]pyridin-5-yl)-1H-pyrrolo[2,3-b]pyridin-2-yl)methyl)piperidin-4-yl)benzoyl)piperidin-4-yl)methyl)-3-methylpiperazin-1-yl)methyl)-3-methyl-2-oxo-2,3-dihydro-1H-benzo[d]imidazol-1-yl)piperidine-2,6-dione]
13.2 nM	7.86	CNc1ccn(-c2ccnc3c2cc(CN2CCC(c4c(F)cc(C(=O)N5CCC(CN6CCN(Cc7cc8c(cc7F)N(C7CCC(=O)NC7=O)C(=O)C87CC7)CC6)CC5)cc4F)CC2)n3C)c(=O)c1 (centres unmarked) [Example 3u42, 3-(5′-((4-((1-(3,5-difluoro-4-(1-((1-methyl-4-(4-(methylamino)-2-oxopyridin-1 (2H)-yl)-1H-pyrrolo[2,3-b]pyridin-2-yl)methyl)piperidin-4-yl)benzoyl)piperidin-4-yl)methyl)piperazin-1-yl)methyl)-6′-fluoro-2′-oxospiro[cyclopropane-1,3′-indolin]-1′-yl)piperidine-2,6-dione]
3.9 nM	8.35	CNc1ccn(-c2ccnc3c2cc(CN2CC=C(c4c(F)cc(C(=O)N5CCC(CN6CCN(Cc7ccc8c(c7)C(C)(C)C(=O)N8C7CCC(=O)NC7=O)C[C@@H]6C)CC5)cc4F)CC2)n3C)c(=O)c1 (stereo partly drawn) [Example 3u45, 3-(5-(((S)-4-((1-(3,5-difluoro-4-(1-((1-methyl-4-(4-(methylamino)-2-oxopyridin-1 (2H)-yl)-1H-pyrrolo[2,3-b]pyridin-2-yl)methyl)-1,2,3,6-tetrahydropyridin-4-yl)benzoyl)piperidin-4-yl)methyl)-3-methylpiperazin-1-yl)methyl)-3,3-dimethyl-2-oxoindolin-1-yl)piperidine-2,6-dione]
11.2 nM	8.11	CNc1cc(=O)n(-c2ccnc3c2cc(CN2CCC(c4c(F)cc(C(=O)N5CCC(CN6CCN(Cc7ccc8c(c7)C(C)(C)C(=O)N8C7CCC(=O)NC7=O)C[C@@H]6C)CC5)cc4F)CC2)n3C)cc1F (stereo partly drawn) [Example 3u48, 3-(5-(((S)-4-((1-(3,5-difluoro-4-(1-((4-(5-fluoro-4-(methylamino)-2-oxopyridin-1 (2H)-yl)-1-methyl-1H-pyrrolo[2,3-b]pyridin-2-yl)methyl)piperidin-4-yl)benzoyl)piperidin-4-yl)methyl)-3-methylpiperazin-1-yl)methyl)-3,3-dimethyl-2-oxoindolin-1-yl)piperidine-2,6-dione]
12 nM	8.57	CNc1cc(=O)n(-c2ccnc3c2cc(CN2CC=C(c4c(F)cc(C(=O)N5CCC(CN6CCN(Cc7ccc8c(c7)n(C)c(=O)n8C7CCC(=O)NC7=O)C[C@@H]6C)CC5)cc4F)CC2)n3C)cc1F (stereo partly drawn) [Example 3u54, 3-(5-(((S)-4-((1-(3,5-difluoro-4-(1-((4-(5-fluoro-4-(methylamino)-2-oxopyridin-1 (2H)-yl)-1-methyl-1H-pyrrolo[2,3-b]pyridin-2-yl)methyl)-1,2,3,6-tetrahydropyridin-4-yl)benzoyl)piperidin-4-yl)methyl)-3-methylpiperazin-1-yl)methyl)-3-methyl-2-oxo-2,3-dihydro-1H-benzo[d]imidazol-1-yl)piperidine-2,6-dione]
